Measured values taken from patent publication US8759535B2, “Substituted fused imidazole derivatives, pharmaceutical compositions, and methods of use thereof” (High Point Pharmaceuticals, LLC, priority 2010, dated 2014).
Counter-ions that a name gives are not always drawn.

Test system: HMOX1
Assay: HMOX1 Protein Assay (immunostaining of HO-1 in NHLF cells, GE InCell 1000)
Format: cell-based
Conditions: Homo sapiens, fold change above DMSO treated cells, 3 μM compound (asterisk), 16 h
Method in brief: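 NHLF cells seeded overnight in FGM-2, then exposed to compound or DMSO vehicle for 16 h, fixed, and immunostained for HO-1 with Hoechst nuclear counterstain; imaged on InCell 1000. Values are fold change over DMSO-treated cells, generally at 5 μM (0.8% DMSO), with asterisked entries at 3 μM.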

| SMILES | fold induction at 3 µM |
| --- | --- |
| CN1CCN(C(=O)CCNC(=O)c2ccc3c(c2)nc(Nc2nc4ccc(C(F)(F)F)cc4s2)n3C)CC1 [Example 375, 1-Methyl-2-(6-trifluoromethyl-benzothiazol-2-ylamino)-1H-benzoimidazole-5-carboxylic acid [3-(4-methyl-piperazin-1-yl)-3-oxo-propyl]-amide] | 19.4 |
| CNC(=O)CNC(=O)c1ccc2c(c1)nc(Nc1nc3ccc(Cl)cc3s1)n2C [Example 380, 2-(6-Chloro-benzothiazol-2-ylamino)-1-methyl-1H-benzoimidazole-5-carboxylic acid methylcarbamoylmethyl-amide] | 30 |
| CNC(=O)CNC(=O)c1ccc2c(c1)nc(Nc1nc3ccc(C(F)(F)F)cc3s1)n2C [Example 381, 1-Methyl-2-(6-trifluoromethyl-benzothiazol-2-ylamino)-1H-benzoimidazole-5-carboxylic acid methylcarbamoylmethyl-amide] | 28.2 |
| Cn1c(Nc2nc3ccc(Cl)cc3s2)nc2cc(C(=O)NCC(=O)N3CCCC3)ccc21 [Example 397, 2-(6-Chloro-benzothiazol-2-ylamino)-1-methyl-1H-benzoimidazole-5-carboxylic acid (2-oxo-2-pyrrolidin-1-yl-ethyl)-amide] | 25 |
| Cn1c(Nc2nc3ccc(Cl)cc3s2)nc2cc(C(=O)NCC(=O)N3CC[C@@H](O)C3)ccc21 [Example 400, 2-(6-Chloro-benzothiazol-2-ylamino)-1-methyl-1H-benzoimidazole-5-carboxylic acid [2-((R)-3-hydroxy-pyrrolidin-1-yl)-2-oxo-ethyl]-amide] | 15 |
| Cn1c(Nc2nc3ccc(Cl)cc3s2)nc2cc(C(=O)NCC(=O)N3CC[C@H](O)C3)ccc21 [Example 401, 2-(6-Chloro-benzothiazol-2-ylamino)-1-methyl-1H-benzoimidazole-5-carboxylic acid [2-((S)-3-hydroxy-pyrrolidin-1-yl)-2-oxo-ethyl]-amide] | 27 |
| Cn1c(Nc2nc3ccc(C(F)(F)F)cc3s2)nc2cc(C(=O)NCC(=O)N3CC[C@@H](O)C3)ccc21 [Example 402, 1-Methyl-2-(6-trifluoromethyl-benzothiazol-2-ylamino)-1H-benzoimidazole-5-carboxylic acid [2-((R)-3-hydroxy-pyrrolidin-1-yl)-2-oxo-ethyl]-amide] | 24 |
| Cn1c(Nc2nc3ccc(C(F)(F)F)cc3s2)nc2cc(C(=O)NCC(=O)N3CC[C@H](O)C3)ccc21 [Example 403, 1-Methyl-2-(6-trifluoromethyl-benzothiazol-2-ylamino)-1H-benzoimidazole-5-carboxylic acid [2-((S)-3-hydroxy-pyrrolidin-1-yl)-2-oxo-ethyl]-amide] | 24.8 |

Same assay, conditions: Homo sapiens, fold change above DMSO treated cells, 5 μM compound, 16 h

| SMILES | fold induction at 5 µM |
| --- | --- |
| CN(C)C(=O)CCCNC(=O)c1ccc2c(c1)nc(Nc1nc3ccc(Cl)cc3s1)n2C [Example 376, 2-(6-Chloro-benzothiazol-2-ylamino)-1-methyl-1H-benzoimidazole-5-carboxylic acid (3-dimethylcarbamoyl-propyl)-amide] | 19.1 |
| CN1CCN(C(=O)CCCNC(=O)c2ccc3c(c2)nc(Nc2nc4ccc(Cl)cc4s2)n3C)CC1 [Example 377, 2-(6-Chloro-benzothiazol-2-ylamino)-1-methyl-1H-benzoimidazole-5-carboxylic acid [4-(4-methyl-piperazin-1-yl)-4-oxo-butyl]-amide] | 20.3 |
| Cn1c(Nc2nc3ccc(Cl)cc3s2)nc2cc(C(=O)N[C@H]3CC[C@H](C(=O)O)CC3)ccc21 [Example 378, 4-{[2-(6-Chloro-benzothiazol-2-ylamino)-1-methyl-1H-benzoimidazole-5-carbonyl]-amino}-trans-cyclohexanecarboxylic acid] | 24.9 |
| CN(C)C(=O)[C@H]1CC[C@H](NC(=O)c2ccc3c(c2)nc(Nc2nc4ccc(Cl)cc4s2)n3C)CC1 [Example 379, 2-(6-Chloro-benzothiazol-2-ylamino)-1-methyl-1H-benzoimidazole-5-carboxylic acid (4-trans-dimethylcarbamoyl-cyclohexyl)-amide] | 21.7 |
| C[C@@H](O)CNC(=O)CNC(=O)c1ccc2c(c1)nc(Nc1nc3ccc(Cl)cc3s1)n2C [Example 382, 2-(6-Chloro-benzothiazol-2-ylamino)-1-methyl-1H-benzoimidazole-5-carboxylic acid [((R)-2-hydroxy-propylcarbamoyl)-methyl]-amide] | 20.6 |
| Cn1c(Nc2nc3ccc(Cl)cc3s2)nc2cc(C(=O)NCC(=O)NCCS(C)(=O)=O)ccc21 [Example 383, 2-(6-Chloro-benzothiazol-2-ylamino)-1-methyl-1H-benzoimidazole-5-carboxylic acid [(2-methanesulfonyl-ethylcarbamoyl)-methyl]-amide] | 16.4 |
| Cn1c(Nc2nc3ccc(Cl)cc3s2)nc2cc(C(=O)NCC(=O)NC3CCOC3)ccc21 (centres unmarked) [Example 384, 2-(6-Chloro-benzothiazol-2-ylamino)-1-methyl-1H-benzoimidazole-5-carboxylic acid [(tetrahydro-furan-3-ylcarbamoyl)-methyl]-amide] | 26 |
| Cn1c(Nc2nc3ccc(Cl)cc3s2)nc2cc(C(=O)NCC(=O)NC3CCOCC3)ccc21 [Example 385, 2-(6-Chloro-benzothiazol-2-ylamino)-1-methyl-1H-benzoimidazole-5-carboxylic acid [(tetrahydro-pyran-4-ylcarbamoyl)-methyl]-amide] | 24.5 |
| CN1CCC(NC(=O)CNC(=O)c2ccc3c(c2)nc(Nc2nc4ccc(Cl)cc4s2)n3C)CC1 [Example 386, 2-(6-Chloro-benzothiazol-2-ylamino)-1-methyl-1H-benzoimidazole-5-carboxylic acid [(1-methyl-piperidin-4-ylcarbamoyl)-methyl]-amide] | 58.3 |
| Cn1c(Nc2nc3ccc(Cl)cc3s2)nc2cc(C(=O)NCC(=O)N[C@@H]3CCCNC3)ccc21 [Example 387, 2-(6-Chloro-benzothiazol-2-ylamino)-1-methyl-1H-benzoimidazole-5-carboxylic acid ((R)-piperidin-3-ylcarbamoylmethyl)-amide hydrochloride] | 19.9 |
| CN1CCC[C@@H](NC(=O)CNC(=O)c2ccc3c(c2)nc(Nc2nc4ccc(Cl)cc4s2)n3C)C1 [Example 388, 2-(6-Chloro-benzothiazol-2-ylamino)-1-methyl-1H-benzoimidazole-5-carboxylic acid [((R)-1-methyl-piperidin-3-ylcarbamoyl)-methyl]-amide] | 22 |
| Cn1c(Nc2nc3ccc(OC(F)(F)F)cc3s2)nc2cc(C(=O)NCC(=O)NCc3ccc(O)cc3)ccc21 [Example 389, 1-Methyl-2-(6-trifluoromethoxy-benzothiazol-2-ylamino)-1H-benzoimidazole-5-carboxylic acid [(4-hydroxy-benzylcarbamoyl)-methyl]-amide] | 38.6 |
| CN(CCO)C(=O)CNC(=O)c1ccc2c(c1)nc(Nc1nc3ccc(OC(F)(F)F)cc3s1)n2C [Example 390, 1-Methyl-2-(6-trifluoromethoxy-benzothiazol-2-ylamino)-1H-benzoimidazole-5-carboxylic acid {[(2-hydroxy-ethyl)-methyl-carbamoyl]-methyl}-amide] | 46.4 |
| CN(CCO)C(=O)CNC(=O)c1ccc2c(c1)nc(Nc1nc3ccc(Cl)cc3s1)n2C [Example 391, 2-(6-Chloro-benzothiazol-2-ylamino)-1-methyl-1H-benzoimidazole-5-carboxylic acid {[(2-hydroxy-ethyl)-methyl-carbamoyl]-methyl}-amide] | 38.6 |
| Cn1c(Nc2nc3ccc(OC(F)(F)F)cc3s2)nc2cc(C(=O)NCC(=O)N(CCO)CCO)ccc21 [Example 392, 1-Methyl-2-(6-trifluoromethoxy-benzothiazol-2-ylamino)-1H-benzoimidazole-5-carboxylic acid {[bis-(2-hydroxy-ethyl)-carbamoyl]-methyl}-amide] | 24.9 |
| CN(C(=O)CNC(=O)c1ccc2c(c1)nc(Nc1nc3ccc(Cl)cc3s1)n2C)C1CCOCC1 [Example 393, 2-(6-Chloro-benzothiazol-2-ylamino)-1-methyl-1H-benzoimidazole-5-carboxylic acid {[methyl-(tetrahydro-pyran-4-yl)-carbamoyl]-methyl}-amide] | 61.3 |
| CN(C(=O)CNC(=O)c1ccc2c(c1)nc(Nc1nc3ccc(Cl)cc3s1)n2C)C1CCNC1 (centres unmarked) [Example 394, 2-(6-Chloro-benzothiazol-2-ylamino)-1-methyl-1H-benzoimidazole-5-carboxylic acid [(methyl-pyrrolidin-3-yl-carbamoyl)-methyl]-amide hydrochloride] | 37.6 |
| CN1CCC(N(C)C(=O)CNC(=O)c2ccc3c(c2)nc(Nc2nc4ccc(Cl)cc4s2)n3C)C1 (centres unmarked) [Example 395, 2-(6-Chloro-benzothiazol-2-ylamino)-1-methyl-1H-benzoimidazole-5-carboxylic acid {[methyl-(1-methyl-pyrrolidin-3-yl)-carbamoyl]-methyl}-amide] | 72 |
| CN(C(=O)CNC(=O)c1ccc2c(c1)nc(Nc1nc3ccc(Cl)cc3s1)n2C)C1CCCNC1 (centres unmarked) [Example 396, 2-(6-Chloro-benzothiazol-2-ylamino)-1-methyl-1H-benzoimidazole-5-carboxylic acid [(methyl-piperidin-3-yl-carbamoyl)-methyl]-amide hydrochloride] | 36 |
| Cn1c(Nc2nc3ccc(OC(F)(F)F)cc3s2)nc2cc(C(=O)NCC(=O)N3CCC(O)C3)ccc21 (centres unmarked) [Example 398, 1-Methyl-2-(6-trifluoromethoxy-benzothiazol-2-ylamino)-1H-benzoimidazole-5-carboxylic acid [2-(3-hydroxy-pyrrolidin-1-yl)-2-oxo-ethyl]-amide] | 31.7 |
| Cn1c(Nc2nc3ccc(Cl)cc3s2)nc2cc(C(=O)NCC(=O)N3CCC(O)C3)ccc21 (centres unmarked) [Example 399, 2-(6-Chloro-benzothiazol-2-ylamino)-1-methyl-1H-benzoimidazole-5-carboxylic acid [2-(3-hydroxy-pyrrolidin-1-yl)-2-oxo-ethyl]-amide] | 20.8 |
